Inhibition data for 6 molecules are collected here from ChEMBL document CHEMBL1133967, “New leads for selective inhibitors of alpha-L-fucosidases. Synthesis and glycosidase inhibitory activities of [(2R,3S,4R)-3,4-dihydroxypyrrolidin-2-yl]furan derivatives” (Bioorg Med Chem Lett, 2001).

The source made the active and inactive calls. No cut-off for these calls is given here.

The test system of assay [1] is Beta-N-acetylglucosaminidase (Canavalia ensiformis). Nature of the assay: Inhibitory activity against Beta-N-acetylglucosaminidase of Jack bean at 1 mM; No inhibition.
Assay [2] concerns Beta-N-acetylglucosaminidase (Bos taurus). Nature of the assay: Inhibitory activity against Beta-N-acetylglucosaminidase of bovine epididymis B at 1 mM; No inhibition.
In assay [3] the test system is Escherichia coli. Kind of assay: Inhibitory activity against Alpha-galactosidase of Escherichia coli at 1 mM; No inhibition.
The test system of assay [4] is Beta-N-acetylglucosaminidase (Bos taurus). Kind of assay: Inhibitory activity against Beta-N-acetylglucosaminidase of bovine epididymis A at 1 mM; No inhibition.
Assay [5] relates to Canavalia ensiformis. Nature of the assay: Inhibitory activity against Beta-D-galactosidase of Jack bean at 1 mM; No inhibition.
Assay [6] deals with Prunus dulcis. Kind of assay: Inhibitory activity against Beta-glucosidase of almonds at 1 mM; No inhibition.
In assay [7] the target is T1, Tissue alpha-L-fucosidase (Homo sapiens) (UniProt P04066).
T1 sequence (whole entry): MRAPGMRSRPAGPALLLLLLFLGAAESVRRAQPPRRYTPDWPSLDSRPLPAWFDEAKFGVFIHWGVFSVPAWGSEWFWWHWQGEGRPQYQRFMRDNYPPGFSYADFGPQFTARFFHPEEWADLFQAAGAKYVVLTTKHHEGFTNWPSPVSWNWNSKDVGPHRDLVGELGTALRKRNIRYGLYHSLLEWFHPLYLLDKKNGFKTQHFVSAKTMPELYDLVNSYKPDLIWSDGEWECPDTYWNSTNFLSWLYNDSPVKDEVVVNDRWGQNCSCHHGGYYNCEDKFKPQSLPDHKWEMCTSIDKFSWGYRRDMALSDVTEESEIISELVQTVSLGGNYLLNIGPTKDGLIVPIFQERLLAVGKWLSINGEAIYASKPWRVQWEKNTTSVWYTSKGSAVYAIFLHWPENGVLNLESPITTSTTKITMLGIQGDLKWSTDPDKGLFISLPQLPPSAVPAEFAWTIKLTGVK
Kind of assay: Inhibitory activity against alpha-L-Fucosidase of human placenta at 1 mM; No inhibition.

Assay [8] concerns Rhizopus. Kind of assay: Inhibitory activity against Amyloglucosidase of Rhizopus mold at 1 mM; No inhibition.
Assay [9] has as its target T2, Beta-galactosidase (Aspergillus niger) (UniProt P29853).
T2 sequence (whole entry): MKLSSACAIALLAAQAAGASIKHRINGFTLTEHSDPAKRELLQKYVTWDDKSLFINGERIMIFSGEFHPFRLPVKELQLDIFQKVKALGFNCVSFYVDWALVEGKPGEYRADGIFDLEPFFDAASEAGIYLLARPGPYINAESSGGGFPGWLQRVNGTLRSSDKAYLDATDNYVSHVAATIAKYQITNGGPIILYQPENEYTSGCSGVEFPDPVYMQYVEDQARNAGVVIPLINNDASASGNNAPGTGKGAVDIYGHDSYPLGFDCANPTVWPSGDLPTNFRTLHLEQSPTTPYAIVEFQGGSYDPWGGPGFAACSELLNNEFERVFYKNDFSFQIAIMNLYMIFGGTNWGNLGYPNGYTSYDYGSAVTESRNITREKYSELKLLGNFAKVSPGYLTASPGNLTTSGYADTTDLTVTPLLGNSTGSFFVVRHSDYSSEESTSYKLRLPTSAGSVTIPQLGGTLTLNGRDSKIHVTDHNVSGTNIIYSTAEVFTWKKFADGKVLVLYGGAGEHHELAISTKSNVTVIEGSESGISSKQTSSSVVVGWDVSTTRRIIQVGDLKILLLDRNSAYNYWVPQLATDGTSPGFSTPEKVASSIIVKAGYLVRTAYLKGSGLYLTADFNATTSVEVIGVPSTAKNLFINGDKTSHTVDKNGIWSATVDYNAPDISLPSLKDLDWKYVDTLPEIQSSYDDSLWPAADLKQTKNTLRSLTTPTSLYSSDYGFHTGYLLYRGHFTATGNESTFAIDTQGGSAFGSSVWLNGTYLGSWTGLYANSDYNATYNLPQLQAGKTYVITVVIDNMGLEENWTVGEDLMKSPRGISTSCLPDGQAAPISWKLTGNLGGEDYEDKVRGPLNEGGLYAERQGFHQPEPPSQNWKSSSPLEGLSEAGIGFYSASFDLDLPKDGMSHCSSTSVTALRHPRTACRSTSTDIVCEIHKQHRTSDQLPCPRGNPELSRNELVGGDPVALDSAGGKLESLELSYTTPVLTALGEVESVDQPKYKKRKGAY
Nature of the assay: Inhibitory activity against Beta-D-galactosidase of Aspergillus niger at 1 mM; No inhibition.

In assay [10] the target is T3, Beta-galactosidase (Bos taurus) (UniProt Q58D55).
T3 sequence (whole entry): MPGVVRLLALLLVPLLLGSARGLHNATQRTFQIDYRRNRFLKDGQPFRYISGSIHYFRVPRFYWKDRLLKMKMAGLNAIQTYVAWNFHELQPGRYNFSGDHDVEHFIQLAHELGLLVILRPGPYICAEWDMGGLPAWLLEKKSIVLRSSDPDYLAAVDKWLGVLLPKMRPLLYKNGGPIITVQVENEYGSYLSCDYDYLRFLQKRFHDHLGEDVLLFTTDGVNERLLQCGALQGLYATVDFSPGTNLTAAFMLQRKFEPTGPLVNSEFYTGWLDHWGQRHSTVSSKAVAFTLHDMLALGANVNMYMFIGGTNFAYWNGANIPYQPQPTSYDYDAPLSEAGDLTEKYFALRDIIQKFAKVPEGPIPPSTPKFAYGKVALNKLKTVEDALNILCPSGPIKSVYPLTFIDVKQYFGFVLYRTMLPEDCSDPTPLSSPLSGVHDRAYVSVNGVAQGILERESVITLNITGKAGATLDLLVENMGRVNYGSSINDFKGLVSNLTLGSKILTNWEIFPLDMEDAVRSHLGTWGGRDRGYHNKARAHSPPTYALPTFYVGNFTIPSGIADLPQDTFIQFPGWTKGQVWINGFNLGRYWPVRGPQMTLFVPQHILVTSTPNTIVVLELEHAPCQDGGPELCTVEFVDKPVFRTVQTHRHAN
Nature of the assay: Percent inhibition against Beta-D-galactosidase of bovine liver at 1 mM.

Assay [11] relates to Coffea arabica. Kind of assay: Inhibitory activity against Alpha-galactosidase of coffee bean at 1 mM; No inhibition.
The subject of assay [12] is Canavalia ensiformis. Kind of assay: Inhibitory activity against Alpha-mannosidase of Jack bean at 1 mM; No inhibition.
Assay [13] concerns Prunus dulcis. Kind of assay: Inhibitory activity against Alpha-mannosidase of Almonds at 1 mM; No inhibition.
The subject of assay [14] is isomaltase (Saccharomyces cerevisiae). Nature of the assay: Inhibitory activity against isomaltase of baker yeast at 1 mM; No inhibition.
Assay [15] concerns the target Glucoamylase (Aspergillus niger) (UniProt P69328). Nature of the assay: Inhibitory activity against Amyloglucosidase of Aspergillus niger at 1 mM; No inhibition.
For assay [16], the species on record is Gallus gallus. Kind of assay: Inhibitory activity against alpha-N-acetylgalactosaminidase of chicken liver at 1 mM; No inhibition.
Assay [17] relates to Helix pomatia. Nature of the assay: Inhibitory activity against Beta-mannosidase of Helix pomatia at 1 mM; No inhibition.
In assay [18] the test system is Aspergillus niger. Kind of assay: Inhibitory activity against Alpha-galactosidase of Aspergillus niger at 1 mM; No inhibition.
The test system of assay [19] is Aspergillus oryzae. Kind of assay: Inhibitory activity against Beta-D-galactosidase of Aspergillus oryzae at 1 mM; No inhibition.
The subject of assay [20] is Caldicellulosiruptor saccharolyticus. Kind of assay: Inhibitory activity against Beta-glucosidase of Caldocellum saccharolyticum at 1 mM; No inhibition.
Assay [21] deals with maltase (Saccharomyces cerevisiae). Kind of assay: Inhibitory activity against maltase of yeast at 1 mM; No inhibition.
Assay [22] has as its target Beta-galactosidase (Escherichia coli) (UniProt Q8VNN2). Nature of the assay: Inhibitory activity against Beta-D-galactosidase of Escherichia coli at 1 mM; No inhibition.
For assay [23], the system named is maltase (Oryza sativa). Nature of the assay: Inhibitory activity against maltase of rice at 1 mM; No inhibition.
Assay [24] is filed under the species Bos taurus. Nature of the assay: Inhibitory activity against alpha-L-Fucosidase of bovine epididymis at 1 mM; No inhibition.
Assay [25] relates to Canavalia ensiformis. Nature of the assay: Percent inhibition against Alpha-mannosidase of Jack bean at 1 mM.
For assay [26], the system named is Prunus dulcis. Kind of assay: Percent inhibition against Alpha-mannosidase of Almonds at 1 mM.
Assay [27] has as its target Glucoamylase (Aspergillus niger) (UniProt P69328). Nature of the assay: Percent inhibition against Amyloglucosidase of Aspergillus niger at 1 mM.
In assay [28] the target is T2, Beta-galactosidase (Aspergillus niger). The conditions noted are these: 1 mM.
Description: Percent inhibition against Beta-D-galactosidase of Aspergillus niger at 1 mM
Assay [29] addresses T1, Tissue alpha-L-fucosidase (Homo sapiens). Kind of assay: Percent inhibition against alpha-L-Fucosidase of human placenta at 1 mM.
The subject of assay [30] is maltase (Oryza sativa). Kind of assay: Inhibitory activity against maltase of rice at 1 mM.

Chain of Glucoamylase (Aspergillus niger) (P69328 whole entry): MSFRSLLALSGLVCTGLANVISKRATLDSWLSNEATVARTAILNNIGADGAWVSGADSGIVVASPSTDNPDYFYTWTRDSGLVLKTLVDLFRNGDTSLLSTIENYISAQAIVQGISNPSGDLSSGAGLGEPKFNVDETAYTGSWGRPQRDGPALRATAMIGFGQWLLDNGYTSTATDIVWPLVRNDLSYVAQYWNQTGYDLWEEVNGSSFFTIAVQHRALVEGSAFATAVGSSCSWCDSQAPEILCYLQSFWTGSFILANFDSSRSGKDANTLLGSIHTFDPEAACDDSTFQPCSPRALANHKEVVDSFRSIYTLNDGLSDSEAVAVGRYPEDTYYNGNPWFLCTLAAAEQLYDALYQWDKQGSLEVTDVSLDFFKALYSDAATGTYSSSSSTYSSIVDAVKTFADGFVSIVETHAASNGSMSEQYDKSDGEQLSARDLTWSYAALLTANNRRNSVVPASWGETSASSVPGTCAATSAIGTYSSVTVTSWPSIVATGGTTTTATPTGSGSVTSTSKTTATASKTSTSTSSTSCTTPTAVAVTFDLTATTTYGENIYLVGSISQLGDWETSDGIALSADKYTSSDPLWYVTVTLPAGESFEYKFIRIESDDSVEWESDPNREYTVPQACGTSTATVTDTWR
Chain of Beta-galactosidase (Escherichia coli) (Q8VNN2 whole entry, looked up): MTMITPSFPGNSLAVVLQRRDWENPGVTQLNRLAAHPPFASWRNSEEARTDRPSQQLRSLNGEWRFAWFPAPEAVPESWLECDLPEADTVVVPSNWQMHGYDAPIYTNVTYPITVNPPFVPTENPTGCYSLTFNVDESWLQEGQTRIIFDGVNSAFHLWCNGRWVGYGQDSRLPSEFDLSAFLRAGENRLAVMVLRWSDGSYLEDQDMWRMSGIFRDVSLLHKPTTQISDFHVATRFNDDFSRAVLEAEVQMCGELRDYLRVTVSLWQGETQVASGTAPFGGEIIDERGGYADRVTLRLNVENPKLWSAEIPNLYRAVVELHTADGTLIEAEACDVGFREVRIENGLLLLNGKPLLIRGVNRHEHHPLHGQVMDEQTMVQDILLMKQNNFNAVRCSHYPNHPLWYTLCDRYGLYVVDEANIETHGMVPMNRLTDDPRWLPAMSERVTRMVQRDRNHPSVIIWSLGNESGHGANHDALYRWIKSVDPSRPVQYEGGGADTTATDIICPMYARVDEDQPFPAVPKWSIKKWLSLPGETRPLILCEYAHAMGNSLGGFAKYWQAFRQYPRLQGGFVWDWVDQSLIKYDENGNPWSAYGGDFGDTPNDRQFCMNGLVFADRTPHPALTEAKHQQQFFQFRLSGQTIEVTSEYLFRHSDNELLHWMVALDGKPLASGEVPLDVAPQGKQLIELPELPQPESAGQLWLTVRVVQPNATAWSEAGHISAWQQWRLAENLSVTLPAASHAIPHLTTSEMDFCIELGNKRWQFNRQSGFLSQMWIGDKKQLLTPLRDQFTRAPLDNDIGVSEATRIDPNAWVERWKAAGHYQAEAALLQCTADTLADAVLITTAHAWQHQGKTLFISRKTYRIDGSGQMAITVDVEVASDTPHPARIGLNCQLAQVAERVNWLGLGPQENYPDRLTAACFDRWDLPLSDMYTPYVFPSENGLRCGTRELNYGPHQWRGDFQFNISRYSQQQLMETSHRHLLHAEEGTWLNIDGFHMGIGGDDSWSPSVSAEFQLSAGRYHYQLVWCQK

As for `Cc1oc(C2NCC(O)C2O)cc1CO` (configuration not stated), the inhibition result in assay [1], in [2], in assay [3], in [4], in assay [5] and in assay [6] was “inactive” in each case. In addition, the inhibition result in assay [7], in [8], in [9], in [11], in assay [12] and in assay [13] was “inactive” in each case. The inhibition result in [14], in assay [15], in assay [16], in [18], in assay [19] and in [21] was “inactive” throughout. The inhibition entry in assay [22], in assay [23] and in assay [24] was “inactive” each time. In addition, the inhibition in [10] is 50%; in [17] it was “No inhibition”; in [20], “No inhibition”.

With `CCN(CC)C(=O)c1cc(C2NCC(O)C2O)oc1C` (configuration not stated), the values for the inhibition in assay [25], in assay [10] and in assay [26] were 27%, 58% and 31%, respectively. The inhibition entry in assay [9], in assay [15] and in [22] was “inactive” each time.

In the case of `Cc1oc(C2NCC(O)C2O)cc1C(=O)NC(C)C` (configuration not stated), the inhibition entry in assay [9] and in [22] was “inactive” throughout. In addition, the inhibition in [10] is 38%; in assay [27] it was 23%; in assay [26], 29%.

Take `CCOC(=O)c1cc(C2NCC(O)C2O)oc1C` (configuration not stated): the inhibition came to 80% in assay [28], 38% in [25], 57% in assay [10] and 76% in assay [29]. The inhibition result in [13], in [15] and in [22] was “inactive” in each case.

Turning to `Cc1oc(C2NCC(O)C2O)cc1C(=O)O` (configuration not stated), the inhibition entry in assay [1], in assay [2], in assay [3], in [4], in [5] and in assay [6] was “inactive” each time. Also, the inhibition result in assay [7], in assay [8], in assay [9], in assay [11], in [12] and in assay [13] was “inactive” in each case. For the same molecule, the inhibition entry in [14], in [15], in assay [16], in assay [18], in assay [19] and in [21] was “inactive” throughout. The inhibition result in assay [22] and in [24] was “inactive” throughout. The inhibition in assay [10] is 30%; in [30], “No inhibition”; in assay [17] it was “No inhibition”; in assay [20], “No inhibition”.

Take `CCNC(=O)c1cc(C2NCC(O)C2O)oc1C` (configuration not stated): the inhibition in assay [25] came to 29%; in assay [10] it was 52%; in [26], 32%. In addition, the inhibition entry in assay [9], in assay [15] and in [22] was “inactive” in each case.
